Earlier results, collected in patent publication US20170262578A1, “SYSTEM, METHOD AND SOFTWARE FOR ANALYSIS OF INTRACELLULAR SIGNALING PATHWAY ACTIVATION USING TRANSCRIPTOMIC DATA” (PATHWAY PHARMACEUTICALS LTD, priority 2015, published 2017).
Where two headings read alike, the source gives them in different places.

What was measured:
[1] = system: Metastatic Carcinoma of the Kidney Which Has Progressed on VEGF Receptor Tyrosine Kinase Inhibitor; settings: with Best Supportive Care
[2] = system: Locally Advanced and/or Metastatic Renal Cell Carcinoma; settings: 76 from 290 participants
[3] = system: Locally Advanced and/or Metastatic Renal Cell Carcinoma; settings: 230 from 554 Pazopanib / 224 from 548 Sunitinib participants
[4] = system: Locally Advanced and/or Metastatic Renal Cell Carcinoma; settings: 68 from 186 Pazopanib / 73 from 177 Sunitinib participants
[5] = system: Locally Recurrent or Metastatic Clear-Cell Renal Cell Carcinoma; settings: 74 from 225 participants
[6] = system: Metastatic Renal Cell Carcinoma (RCC)
[7] = system: Unresectable and/or Metastatic Renal Cell Carcinoma
[8] = system: Unresectable and/or Metastatic Renal Cell Carcinoma; remark: listed apart in the source
[9] = system: Metastatic Renal Cell Cancer; settings: for Serious adverse events: 108 from 359 Axitinib / 110 from 355 Sorafenib participants
[10] = system: Unresectable and/or Metastatic Renal Cell Cancer
Renal Cell Carcinoma [11] = system: Renal Cell Carcinoma
[12] = system: Metastatic or Unresectable Renal Cell Cancer (RCC)
[13] = system: Advanced Renal Cell Carcinoma; settings: for Median overall response duration: 11 / 19 / 20 participants; for Median progression free survival / Median time to treatment failure: 207 / 209 / 210 participants; for Median overall survival: 207 Interferon-α / 209 Temsirolimus / 210 combination participants; for Clinical benefit (complete, partial response or stable disease) / Complete or partial response: from 207 / 209 / 210 participants
[14] = system: Advanced (First-Line) Renal Cell Cancer; settings: 45 of 119 participants
[15] = system: Metastatic Renal Cell Cancer
[16] = system: Cytokine-Refractory Metastatic Renal Cell Carcinoma; settings: 46 from 106 participants
Renal Cell Carcinoma [17] = settings: 28 from 51 participants
[18] = system: Cytokine-Refractory Metastatic Renal Cell Carcinoma
[19] = system: unresectable or metastatic renal cell carcinoma
[20] = first intervention period, 5 / 8 participants
[21] = first intervention period, from 97 / 92 participants

Q: For `CO[C@H]1C[C@@H]2CC[C@@H](C)[C@@](O)(O2)C(=O)C(=O)N2CCCC[C@H]2C(=O)O[C@H]([C@H](C)C[C@@H]2CC[C@@H](OCCO)[C@H](OC)C2)CC(=O)[C@H](C)/C=C(\C)[C@@H](O)[C@@H](OC)C(=O)[C@H](C)C[C@H](C)/C=C/C=C/C=C/1C` [RAD001, Everolimus], which Serious adverse events ([1]; 135 from 274 participants) is on record?
A: The Serious adverse events was 49.27%.

Q: What about the Median overall survival ([1]; 277 participants) of the same compound?
A: The Median overall survival was 13.57 months.

Q: What about the “Median progression free survival” value ([1]; 277 participants) of the same compound?
A: The value was 4.9 months.

Q: And the “Complete or partial response” value ([1]; from 277 participants)?
A: Its value is 1.8%.

Q: Which results are given for `Cc1ccc(Nc2nccc(N(C)c3ccc4c(C)n(C)nc4c3)n2)cc1S(N)(=O)=O` [Pazopanib]?
A: Serious adverse events [2]: 26.21%; Serious adverse events [3]: 41.52%; Serious adverse events [4]: 36.56%; Serious adverse events [5]: 32.89%

Q: Which results are given for `CNC(=O)c1cc(Oc2ccc(NC(=O)Nc3ccc(Cl)c(C(F)(F)F)c3)cc2)ccn1` [Sorafenib]?
A: Serious adverse events ([6]; 4 from 47 participants): 8.51%; Duration of overall response (tumor burden reduction) ([6]; 14 participants): 7.1 months; Median overall survival ([6]; 47 participants): 16 months; Median time to progression ([6]; 47 participants): 4.4 months; Reduction in tumor burden equal to or larger than 5% ([6]; at 8 weeks (2 cycles of treatment), % from 47 participants): 30%; Median overall response duration ([7]; 5 participants): 7.4 months; Median time to objective response ([7]; 5 participants): 1.4 months; Serious adverse events ([7]; 12 from 39 participants): 30.77%; Median overall survival ([7]; 39 participants): 7.8 months; Median progression free survival ([7]; 39 participants): 5.5 months; Median time to progression ([7]; 39 participants): 5.5 months; partial response ([7]; from 39 participants): 5 participants; progressive disease ([7]; from 39 participants): 6 participants; stable disease ([7]; from 39 participants): 27 participants; Median duration of response according to the Independent Radiological Review [8, 20]: 7.5 months; Median time to response according to the Independent Radiological Review [8, 20]: 1.8 months; Serious adverse events ([8]; first intervention period, 47 from 97 / 36 from 90 participants): 48.45%; partial response (Independent Central Review) [8, 21]: 5 participants; stable disease (Independent Central Review) [8, 21]: 72 participants; Median progression-free survival according to the Investigator Assessment ([8]; second intervention period): 4.5 months; Serious adverse events ([8]; second intervention period, 14 from 49 / 30 from 61 participants): 28.57%; stable disease (Investigator Assessment) ([8]; second intervention period, from 49 / 61 participants): 25 participants; Serious adverse events [9]: 30.99%; Median progression free survival ([9]; 361 Axitinib / 362 Sorafenib participants): 4.7 months; Serious adverse events ([10]; 154 from 451 participants): 34.15%; Median progression free survival ([10]; 384 participants): 167 days; Median overall survival ([10]; 451 participants): 542 days; partial response ([10]; from 335 participants): 2.1%; stable disease ([10]; from 335 participants): 77.9%; Serious adverse events (Renal Cell Carcinoma [11]; 34 of 95 participants): 35.79%; Median duration of overall response (Renal Cell Carcinoma [11]; 94 participants): 419 days; Median progression free survival (Renal Cell Carcinoma [11]; 94 participants): 386 days; Median time to response (Renal Cell Carcinoma [11]; 94 participants): 84 days; partial response (Renal Cell Carcinoma [11]; among 94 participants): 25 participants; stable disease (Renal Cell Carcinoma [11]; among 94 participants): 64 participants; Number of participants who died (Renal Cell Carcinoma [11]; from start of treatment of the first subject until 45 months later, from 94 participants): 43 participants

Q: With `CNC(=O)c1cc(Oc2ccc(NC(=O)Nc3ccc(Cl)c(C(F)(F)F)c3)c(F)c2)ccn1` [Regorafenib] as the compound, how does the “Median overall response duration” value ([12]; 19 participants) read?
A: Its value is 428 days.

Q: What about the “Median duration of stable disease” value ([12]; 25 participants) of the same compound?
A: The value was 119 days.

Q: What about the Serious adverse events ([12]; 30 from 49 participants) of the same compound?
A: Its Serious adverse events is 61.22%.

Q: What about the “Median progression free survival” value ([12]; 49 participants) of the same compound?
A: The value was 335 days.

Q: What about the partial response ([12]; among 48 participants) of the same compound?
A: Its partial response is 39.6%.

Q: And the stable disease ([12]; among 48 participants)?
A: The stable disease was 41.7%.

Q: With Interferon-α as the compound, how does the “Median overall response duration” value [13] read?
A: Its value is 7.4 months.

Q: And the “Median progression free survival” value [13]?
A: The value was 3.2 months.

Q: What about the “Median time to treatment failure” value [13] of the same compound?
A: Its value is 1.9 months.

Q: What about the Median overall survival [13] of the same compound?
A: Its Median overall survival is 7.3 months.

Q: And the “Clinical benefit (complete, partial response or stable disease)” value [13]?
A: Its value is 16.4%.

Q: And the “Complete or partial response” value [13]?
A: The value was 5.3%.

Q: And the Serious adverse events ([13]; in vivo)?
A: Its Serious adverse events is 49.5%.

Q: Which results are given for `CCN(CC)CCNC(=O)c1c(C)[nH]c(/C=C2\C(=O)Nc3ccc(F)cc32)c1C` [Sunitinib]?
A: Serious adverse events [14]: 37.82%; Serious adverse events [3]: 40.88%; Serious adverse events [4]: 41.24%; Serious adverse events ([15]; Sunitinib 37.5 mg group, 54 from 143 participants): 37.76%; Serious adverse events ([15]; Sunitinib 50 mg group, 50 from 146 participants): 34.25%; Serious adverse events [16]: 43.40%; Serious adverse events (Renal Cell Carcinoma [17]): 54.90%; Serious adverse events ([18]; AM dose group, out of 54 participants): 21 participants; Serious adverse events ([18]; PM dose group, from 53 participants): 20 participants

Q: For `CNC(=O)c1ccccc1Sc1ccc2c(/C=C/c3ccccn3)n[nH]c2c1` [Axitinib], which Serious adverse events [9] is on record?
A: Its Serious adverse events is 30.08%.

Q: What does the source list for `CO[C@H]1C[C@@H]2CC[C@@H](C)[C@@](O)(O2)C(=O)C(=O)N2CCCC[C@H]2C(=O)O[C@H]([C@H](C)C[C@@H]2CC[C@@H](OC(=O)C(C)(CO)CO)[C@H](OC)C2)CC(=O)[C@H](C)/C=C(\C)[C@@H](O)[C@@H](OC)C(=O)[C@H](C)C[C@H](C)/C=C/C=C/C=C/1C` [Temsirolimus]?
A: Median overall response duration [13]: 11.1 months; Serious adverse events ([13]; 99 from 200 / 82 from 208 / 122 from 208 participants): 39.42%; Median progression free survival [13]: 5.6 months; Median time to treatment failure [13]: 3.7 months; Median overall survival [13]: 10.9 months; Clinical benefit (complete, partial response or stable disease) [13]: 34%; Complete or partial response [13]: 9.1%

Q: For `CN1CC[C@H](c2c(O)cc(O)c3c(=O)cc(-c4ccccc4Cl)oc23)[C@H](O)C1` [Flavopiridol], which stable disease ([19]; 14 among 34 participants) is on record?
A: Its stable disease is 41%.

Q: What about the “CR+PR” value ([19]; 34 participants) of the same compound?
A: The value was 12%.

Q: And the Median overall survival ([19]; 34 participants)?
A: Its Median overall survival is 9 months.

Q: And the “probability of not failing treatment by 6 months” value ([19]; 34 participants)?
A: The value was 21%.

Q: What about the complete response ([19]; among 34 participants) of the same compound?
A: The complete response was 1 participants.

Q: What about the partial response ([19]; among 34 participants) of the same compound?
A: Its partial response is 3 participants.

Q: What about the Toxicity of treatment ([19]; in vivo) of the same compound?
A: The Toxicity of treatment was “moderate”.
